ChEMBL document CHEMBL4265928, “Design, synthesis, and biological evaluation of 2-(phenoxyaryl)-3-urea derivatives as novel P2Y1 receptor antagonists” (Eur J Med Chem, 2018)

Tests used:
Rattus norvegicus = assay: Antiplatelet activity in Sprague-Dawley rat platelet rich plasma assessed as inhibition of ADP-induced platelet aggregation at 3 mg/kg, ig after 2 hrs relative to control; assay type: functional; conditions: po
P2Y purinoceptor 1 = P2Y purinoceptor 1 (Homo sapiens, UniProt P47900); assay: Antagonist activity at P2Y1 (unknown origin) expressed in human 1321N1 cells assessed as induction of calcium stimulation by fluo-4 dye based assay; assay type: functional, cell-based
Chain of P2Y purinoceptor 1 (P47900 whole entry): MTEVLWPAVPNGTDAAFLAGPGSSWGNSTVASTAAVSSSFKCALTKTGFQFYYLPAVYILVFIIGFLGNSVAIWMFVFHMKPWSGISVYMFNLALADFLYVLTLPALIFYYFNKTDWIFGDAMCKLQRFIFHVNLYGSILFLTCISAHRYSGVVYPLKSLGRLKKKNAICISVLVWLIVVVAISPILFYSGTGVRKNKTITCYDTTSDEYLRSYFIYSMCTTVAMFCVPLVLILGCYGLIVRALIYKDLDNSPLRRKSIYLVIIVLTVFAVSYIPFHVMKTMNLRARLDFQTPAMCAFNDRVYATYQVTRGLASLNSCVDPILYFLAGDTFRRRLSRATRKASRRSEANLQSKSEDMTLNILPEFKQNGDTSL

Row | SMILES | inhibition in vivo at 3 mg/kg (Rattus norvegicus) | IC50 (P2Y purinoceptor 1)
1 | CC(C)(C)c1ccccc1Oc1ncccc1NC(=O)Nc1ccc(OC(F)(F)F)cc1 | 67.4% | 
2 | CC(C)(C)c1ccccc1Oc1ncccc1NC(=O)NC1CCCC1 |  | 2.41 µM
3 | CCCCNC(=O)Nc1cccnc1Oc1ccccc1C(C)(C)C | 22% | 9.98 µM
4 | CC(C)(C)c1ccccc1Oc1ncccc1NC(=O)NC1C2CC3CC(C2)CC1C3 (configuration not stated) | 26.7% | 0.62 µM
5 | CC(C)(C)c1ccccc1Oc1ncccc1NC(=O)N[C@H]1CC[C@H](C)CC1 | 57.6% | 7.05 µM
6 | CCOC(=O)c1ccc(NC(=O)Nc2cccnc2Oc2ccccc2C(C)(C)C)s1 | 50.6% | 12.5 µM
7 | CC(C)(C)c1ccccc1Oc1ncccc1NC(=O)Nc1ccc(C(=O)OCc2ccccc2)s1 | 69.4% | 7.19 µM
8 | CC1CCCCC1NC(=O)Nc1cccnc1Oc1ccccc1C(C)(C)C (configuration not stated) |  | 0.82 µM
9 | CC(C)(C)c1ccccc1Oc1ccccc1NC(=O)Nc1ccc(OC(F)(F)F)cc1 |  | 7.53 µM
10 | Cc1ccc(NC(=O)Nc2ccc(OC(F)(F)F)cc2)c(Oc2ccccc2C(C)(C)C)n1 | 68.9% | 0.21 µM
11 | COC(=O)c1ccc(NC(=O)Nc2cccnc2Oc2ccccc2C(C)(C)C)s1 |  | 12.9 µM
